For this assay, the target named is T1, UDP-glucose dehydrogenase (Homo sapiens, UniProt O60701).
T1 sequence (O60701 1-494): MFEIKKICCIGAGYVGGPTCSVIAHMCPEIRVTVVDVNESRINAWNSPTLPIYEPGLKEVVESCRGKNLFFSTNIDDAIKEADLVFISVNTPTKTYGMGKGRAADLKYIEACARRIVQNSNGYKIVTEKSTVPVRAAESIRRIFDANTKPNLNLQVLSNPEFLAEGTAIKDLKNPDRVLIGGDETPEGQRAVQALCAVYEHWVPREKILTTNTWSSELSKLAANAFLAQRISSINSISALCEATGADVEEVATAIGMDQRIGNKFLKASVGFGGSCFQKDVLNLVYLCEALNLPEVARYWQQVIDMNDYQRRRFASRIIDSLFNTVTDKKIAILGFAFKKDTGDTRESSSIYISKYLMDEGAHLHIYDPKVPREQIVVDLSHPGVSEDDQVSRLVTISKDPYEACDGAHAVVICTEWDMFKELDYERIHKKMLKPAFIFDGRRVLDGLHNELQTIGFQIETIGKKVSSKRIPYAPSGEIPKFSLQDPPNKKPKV
The assay is described as follows: High throughput screening for inhibitors of UDP-glucose dehydrogenase (NADH fluorescence). To be noted: for inhibition at 25 µg/mL (stock): compound plates 20 μL/well of 25 μg/mL compound in 2.5% DMSO, relative to DMSO negative and UDP-xylose positive controls, higher POC = more inhibitory. It counts as biochemical.

The mark [1] stands for this setting: read-out: POC (Percent of Controls).

Turning to `N#CSC(C#N)Cc1cccc([N+](=O)[O-])c1` (centres unmarked), the inhibition at 25 µg/mL (stock) under setting [1] worked out at 88%.

For the molecule `Cc1ccc(OCCn2ccnc2)cc1`, the inhibition at 25 µg/mL (stock) under setting [1] amounted to 85%.

For `O=C(O[C@@H]1Cc2c(O)cc(O)cc2O[C@@H]1c1cc(O)c(O)c(O)c1-c1c([C@H]2Oc3cc(O)cc(O)c3C[C@H]2OC(=O)c2cc(O)c(O)c(O)c2)cc(O)c(O)c1O)c1cc(O)c(O)c(O)c1`, the inhibition at 25 µg/mL (stock) under setting [1] turned out to be 73%. Still for that read-out and setting: with `COc1cc(NC(=O)COc2ccc(C)cc2C)ccc1NC(=O)c1ccco1` the figure was 70%; with `O=C(Nc1ccc([N+](=O)[O-])cc1)c1ccc(Br)o1`, 62%; with `CC(C)(C)C(=O)NCCNc1ccc([N+](=O)[O-])cc1`, 47%. `CCC(C)(O)c1nnn(-c2nonc2N)c1C(C)(O)CC` (centres unmarked) [drawing 178]: under setting [1], the inhibition at 25 µg/mL (stock) came to 101%. On the same count and under the same terms, with `Cc1nnc(SC2CC(=O)N(c3ccc(Oc4ccccc4)cc3)C2=O)s1` (centres unmarked) the figure was 58%; with `Nc1ccc(Cc2ccc(N)c(O)c2)cc1O`, 62%; with `CCC(=O)Nc1ccc(C(=O)Nc2ccc(Cl)cc2C(=O)O)cc1`, 50%.

Regarding `O=[N+]([O-])c1ccc(SCc2ccco2)c2cccnc12`, under setting [1], the inhibition at 25 µg/mL (stock) was determined as 57%.

For the molecule `O=C(OC[C@H]1O[C@H](OC(=O)c2cc(O)c(O)c(OC(=O)c3cc(O)c(O)c(O)c3)c2)[C@H](OC(=O)c2cc(O)c(O)c(OC(=O)c3cc(O)c(O)c(O)c3)c2)[C@@H](OC(=O)c2cc(O)c(O)c(OC(=O)c3cc(O)c(O)c(O)c3)c2)[C@@H]1OC(=O)c1cc(O)c(O)c(OC(=O)c2cc(O)c(O)c(O)c2)c1)c1cc(O)c(O)c(OC(=O)c2cc(O)c(O)c(O)c2)c1`, the inhibition at 25 µg/mL (stock) under setting [1] was 69%. Take `COc1cc(-c2ccc(NC(=O)c3ccoc3C)c(OC)c2)ccc1NC(=O)c1ccoc1C`: the inhibition at 25 µg/mL (stock) under setting [1] came out at 45%. For `Cc1ccc(-c2ccc(CCC(=O)O)o2)cc1`, the inhibition at 25 µg/mL (stock) under setting [1] was 82%. Same read-out and setting: with `O=c1c(O)cccc2ccc(O)c(O)c12` the figure was 73%. Still for that read-out and setting: then `Cc1nnc(SC2CC(=O)N(c3ccc(Br)cc3)C2=O)s1` (centres unmarked), with 47%. The same measure, in the same setting: then `O=C(/C=C/c1ccco1)c1ccc(NC(=O)c2ccco2)cc1`, with 55%; and `COc1ccc(-c2ccc(CCC(=O)O)[nH]2)cc1`, with 62%. Regarding `CC(=O)C1=C(C)NC(SCc2cccc([N+](=O)[O-])c2)=C(C#N)C1c1cccnc1` (centres unmarked), the inhibition at 25 µg/mL (stock) under setting [1] stood at 51%. As to `N#Cc1ccc(Oc2ccc(C(=O)Nc3ccccc3)cc2)cc1`, the inhibition at 25 µg/mL (stock) under setting [1] was 54%.

With `O=c1c(O)cc([C@H]2Oc3cc(O)cc(O)c3C[C@H]2O)cc2c([C@H]3Oc4cc(O)cc(O)c4C[C@H]3O)cc(O)c(O)c12`, the inhibition at 25 µg/mL (stock) under setting [1] came to 83%. `c1ccc(CNc2nc(-c3ccccc3)[n+](-c3ccccc3)s2)cc1`: the inhibition at 25 µg/mL (stock) under setting [1] stood at 106%. On the same count and under the same terms, then `Cc1ccc(S(=O)(=O)Nc2cccc3ccc(-n4nc(C)cc4C)nc23)cc1`, with 148%; and `Cc1[nH]nc(-c2ccc(O)c(O)c2O)c1Oc1ccccc1`, with 46%; and `O=C(O[C@@H]1Cc2c(O)cc(O)cc2O[C@@H]1c1cc(O)c(=O)c2c(O)c(O)cc([C@H]3Oc4cc(O)cc(O)c4C[C@H]3O)c2c1)c1cc(O)c(O)c(O)c1`, with 76%. Same read-out and setting: then `O=C(Cc1ccccc1)c1ccc(O)c(O)c1O`, with 46%; and `Cc1cc(=O)n2ccc(N)c(O)c2n1`, with 50%. Same read-out and setting: with `COc1ccc(OC)c(N2C(=O)CC(Sc3nc4ccccc4s3)C2=O)c1` (centres unmarked) the figure was 68%; with `O=C1c2ccc(O)cc2O[C@H](c2cc(O)c(O)c(O)c2)[C@H]1O`, 96%; with `Nc1ccccc1S(=O)(=O)Nc1cccc2cccnc12`, 72%. Regarding `CCc1cccc(NC(=O)NC2CCCCC2)c1`, under setting [1], the inhibition at 25 µg/mL (stock) came to 45%. As for `C[n+]1sc(Nc2ccccc2)nc1-c1ccccc1`, the inhibition at 25 µg/mL (stock) under setting [1] was 58%. Still for that read-out and setting: with `O=C(Oc1cc(O)cc2c1C[C@@H](OC(=O)c1cc(O)c(O)c(O)c1)[C@@H](c1cc(O)c(O)c(O)c1)O2)c1cc(O)c(O)c(O)c1` the figure was 67%; with `COc1cc(/C=C2\C(C)=C([N+](=O)[O-])CS2(=O)=O)ccc1O`, 65%; with `COC(=O)Oc1c(Cl)cc2oc(=O)sc2c1[N+](=O)[O-]`, 73%. Still for that read-out and setting: then `CCOc1ccc(N/C(=N/N)c2ccc3ccccc3n2)cc1`, with 66%. With `CC(C)c1cc2c(c(O)c1O)[C@@]1(C(=O)O)CCCC(C)(C)C1CC2` (some centres unmarked), the inhibition at 25 µg/mL (stock) under setting [1] was 66%. The same measure, in the same setting: then `O=C1CC(Sc2nnnn2-c2ccccc2)C(=O)N1c1ccc([N+](=O)[O-])cc1` (centres unmarked), with 73%.

For the molecule `COCCN1C(=O)C(O)=C(C(=O)c2ccc(OC)c(C)c2)C1c1ccncc1` (centres unmarked), the inhibition at 25 µg/mL (stock) under setting [1] is 51%. As for `O=c1c(O)cccc2c([C@H]3Oc4cc(O)cc(O)c4C[C@H]3O)cc(O)c(O)c12`, the inhibition at 25 µg/mL (stock) under setting [1] was determined as 53%.

With `CCN(CC)c1ccc(N)c(C)c1`, under setting [1], the inhibition at 25 µg/mL (stock) is 46%. For `CC(C)N(CCC#N)S(=O)(=O)c1ccccc1[N+](=O)[O-]`, the inhibition at 25 µg/mL (stock) under setting [1] came out at 81%. On the same count and under the same terms, then `COc1ccc2[nH]cc(CCNC(=O)c3ccc([N+](=O)[O-])cc3)c2c1`, with 61%. On the same count and under the same terms, with `CCc1c(C)sc(NC(=O)c2ccoc2C)c1C(N)=O` the figure was 50%; with `NC(=O)c1c(-c2cccs2)csc1N`, 46%. The same measure, in the same setting: with `CN1CCc2c(sc(N)c2C#N)C1` the figure was 55%; with `Brc1ccc(C2Nc3ccccc3N2)o1`, 65%; with `O=c1c(-c2cc(O)c(O)c(O)c2)coc2cc(O)c(O)c(O)c12`, 98%. For the molecule `CN(C)c1ccc(NC(=O)C2C3C=CC(C3)C2C(=O)O)cc1` (centres unmarked), the inhibition at 25 µg/mL (stock) under setting [1] was 56%. The same measure, in the same setting: then `CCc1ccc(NC(Nc2ccc(CC)cc2)=C(S(=O)(=O)CC)S(=O)(=O)CC)cc1`, with 47%; and `c1ccc(Nc2nc(-c3ccccc3)[n+](-c3ccccc3)s2)cc1`, with 52%; and `N#CSC(C#N)Cc1ccc([N+](=O)[O-])cc1` (centres unmarked), with 80%.

Turning to `O=C([O-])c1ccccc1-c1c2cc(Br)c(=O)cc-2oc2[c]([Hg][OH])c([O-])c(Br)cc12.[Na+].[Na+]`, the “POC (Percent of Controls)” value was found to be 97%. Take `O=C(O[C@@H]1Cc2c(O)cc(O)cc2O[C@@H]1c1cc(O)c(=O)c2c(O)c(O)cc([C@H]3Oc4cc(O)cc(O)c4C[C@H]3OC(=O)c3cc(O)c(O)c(O)c3)c2c1)c1cc(O)c(O)c(O)c1`: the inhibition at 25 µg/mL (stock) under setting [1] turned out to be 59%. On the same count and under the same terms, then `Cc1sc(NC(=O)Cc2ccc([N+](=O)[O-])cc2)c(C(N)=O)c1C`, with 75%; and `COc1ccc(-c2ccc(CCC(=O)O)o2)cc1`, with 57%. Still for that read-out and setting: then `CCc1c(C)sc(NC(=O)c2cccc([N+](=O)[O-])c2C)c1C(N)=O`, with 58%; and `N#CSc1cnc(NC2CCCCC2)s1`, with 66%; and `O=C1CC(Sc2nc3ccccc3s2)C(=O)N1c1ccccc1I` (centres unmarked), with 58%. Same read-out and setting: with `O=C(CN1CCCCC1)Nc1ccc(S(=O)(=O)N2CCOCC2)cc1` the figure was 48%; with `N#CSC(C#N)Cc1ccccc1` (centres unmarked), 59%; with `Cc1ccc(-c2csc(N)c2C(N)=O)cc1C`, 47%. As to `O=C1C(Cl)=C(Cl)C(=O)C(Cl)=C1Cl`, under setting [1], the inhibition at 25 µg/mL was determined as 79%.

Take `O=C1CC(Sc2ccccn2)C(=O)N1c1cccc(Cl)c1Cl` (centres unmarked): the inhibition at 25 µg/mL (stock) under setting [1] worked out at 49%. The same measure, in the same setting: then `Nc1ccc(C(=O)c2ccc(N)c(N)c2)cc1N`, with 46%. Same read-out and setting: with `Cc1cc(C)n(-c2ccc3cccc([N+](=O)[O-])c3n2)n1` the figure was 88%. On the same count and under the same terms, then `CC(=O)Oc1cc(-c2coc3cc(OC(C)=O)c(OC(C)=O)c(OC(C)=O)c3c2=O)cc(OC(C)=O)c1OC(C)=O`, with 98%; and `O=C(O[C@@H]1Cc2c(O)cc(O)cc2O[C@@H]1c1cc(O)c(O)c(O)c1)c1cc(O)c(O)c(O)c1`, with 76%. With `COCc1cc(C(C)(C)C)c(O)c(O)c1C(C)(C)C`, the inhibition at 25 µg/mL (stock) under setting [1] came to 56%. On the same count and under the same terms, then `CC(=O)NC(CC(=O)c1ccc(Cl)cc1Cl)C(Cl)(Cl)Cl` (centres unmarked), with 86%; and `Cc1cc(O)ccc1NC(=O)c1ccccc1`, with 46%.

For `COc1ccc(-c2nnc(N)o2)cc1`, the inhibition at 25 µg/mL (stock) under setting [1] was 86%. On the same count and under the same terms, with `COc1cc(/C=C(\C)[N+](=O)[O-])cc(OC)c1OC` the figure was 61%. Still for that read-out and setting: with `O=c1oc2cc(Br)c(O)c(Br)c2s1` the figure was 51%; with `O=C(O[C@@H]1Cc2c(O)cc(O)cc2O[C@@H]1c1cc(O)c(O)c(O)c1-c1c([C@H]2Oc3cc(O)cc(O)c3C[C@H]2O)cc(O)c(O)c1O)c1cc(O)c(O)c(O)c1`, 83%. On to `COc1ccc(-c2ccc(CCC(=O)O)n2-c2ccc(O)cc2)cc1`, for which the inhibition at 25 µg/mL (stock) under setting [1] came to 57%. As to `O=C(Nc1ccc2nc(-c3ccco3)c(-c3ccco3)nc2c1)N1CCOCC1`, the inhibition at 25 µg/mL (stock) under setting [1] worked out at 47%.

The record behind these values is US11478457B2, “Castration-resistant prostate cancer” (priority 2015, dated 2022).
